Measurements from article PMC3781598 (Pharmaceutical research, 2013).

Columns and labels:
NNK-induced tumors = settings: rats; reduced from 70% without inhibitor; cited from earlier work
human CYP2A6 = target: T1, human CYP2A6 (Homo sapiens, UniProt P11509); experiment: Coumarin metabolism assay
T1 sequence (P11509 with tags, fused parts or gaps limits assumed): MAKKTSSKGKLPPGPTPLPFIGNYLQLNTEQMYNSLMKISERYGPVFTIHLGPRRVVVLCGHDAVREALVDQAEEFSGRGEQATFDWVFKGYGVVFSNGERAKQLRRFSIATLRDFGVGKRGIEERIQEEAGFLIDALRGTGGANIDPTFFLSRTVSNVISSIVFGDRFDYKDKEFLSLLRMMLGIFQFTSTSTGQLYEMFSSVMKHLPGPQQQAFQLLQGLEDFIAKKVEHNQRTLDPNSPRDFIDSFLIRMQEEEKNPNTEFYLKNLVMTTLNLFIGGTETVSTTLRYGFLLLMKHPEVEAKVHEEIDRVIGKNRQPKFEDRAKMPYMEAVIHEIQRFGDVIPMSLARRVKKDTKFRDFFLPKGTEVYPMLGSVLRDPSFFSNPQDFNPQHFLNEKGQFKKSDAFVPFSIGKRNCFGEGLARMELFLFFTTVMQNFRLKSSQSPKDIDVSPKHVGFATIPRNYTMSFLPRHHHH

human CYP2A13 [1] = target: T2, human CYP2A13 (Homo sapiens, UniProt Q16696); experiment: Coumarin metabolism assay
T2 sequence (Q16696 with tags, fused parts or gaps limits assumed): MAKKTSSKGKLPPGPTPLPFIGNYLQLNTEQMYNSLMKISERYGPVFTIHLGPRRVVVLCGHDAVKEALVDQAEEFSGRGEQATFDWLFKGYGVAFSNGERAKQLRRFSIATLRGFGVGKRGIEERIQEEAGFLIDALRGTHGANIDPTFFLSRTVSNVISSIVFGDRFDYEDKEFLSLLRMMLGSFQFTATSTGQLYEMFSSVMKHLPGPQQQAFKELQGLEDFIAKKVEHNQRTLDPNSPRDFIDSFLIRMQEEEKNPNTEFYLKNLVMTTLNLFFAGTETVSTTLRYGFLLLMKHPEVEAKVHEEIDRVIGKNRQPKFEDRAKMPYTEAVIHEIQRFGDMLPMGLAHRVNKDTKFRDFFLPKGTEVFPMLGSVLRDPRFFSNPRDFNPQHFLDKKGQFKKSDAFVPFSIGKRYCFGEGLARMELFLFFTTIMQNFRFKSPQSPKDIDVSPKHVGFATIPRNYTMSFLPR

CYP2A6 / CYP2A13 [2] = experiment: Coumarin metabolism assay; settings: human, pH 7.4, probe coumarin (7-hydroxylation), Selectivity Ki (2A6)/ Ki (2A13), ratio of the CYP2A6 value to the CYP2A13 value
human CYP2A13 [3] = experiment: Coumarin metabolism assay; settings: ratio of the CYP2A6 value to the CYP2A13 value
human CYP2A13 [4] = target: T3, human CYP2A13 (Homo sapiens, UniProt Q16696); experiment: Spectral ligand binding assay
T3 sequence (Q16696 25-494): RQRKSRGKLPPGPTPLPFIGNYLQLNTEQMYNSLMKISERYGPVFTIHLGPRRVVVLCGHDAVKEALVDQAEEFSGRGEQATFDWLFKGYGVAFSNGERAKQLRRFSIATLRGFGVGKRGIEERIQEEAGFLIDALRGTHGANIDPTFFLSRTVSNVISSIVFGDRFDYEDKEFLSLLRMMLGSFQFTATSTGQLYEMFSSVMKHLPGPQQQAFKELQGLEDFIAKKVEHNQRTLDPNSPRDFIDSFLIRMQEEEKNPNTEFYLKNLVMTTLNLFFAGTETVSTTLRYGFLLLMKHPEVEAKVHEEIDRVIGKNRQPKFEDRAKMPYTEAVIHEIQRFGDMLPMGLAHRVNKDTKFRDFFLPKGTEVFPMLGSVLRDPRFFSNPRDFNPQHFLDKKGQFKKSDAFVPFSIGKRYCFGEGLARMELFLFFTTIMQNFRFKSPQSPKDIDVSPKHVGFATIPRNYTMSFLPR

CYP2A6 / CYP2A13 [5] = experiment: Spectral ligand binding assay; design: species or system human; settings: human, Selectivity Kd (2A6)/ Kd (2A13), ratio of the CYP2A6 value to the CYP2A13 value
human CYP2A13 [6] = experiment: Spectral ligand binding assay; settings: ratio of the CYP2A6 value to the CYP2A13 value

| Structure (SMILES) | NNK-induced tumors (NNK-induced tumors) | Ki (human CYP2A6) | Mode of inhibition 2A6 (human CYP2A6; coumarin substrate) | α (mixed inhibition) 2A6 (human CYP2A6; coumarin substrate, mixed model inhibition) | Ki (human CYP2A13 [1]) | selectivity ratio at 10 min (CYP2A6 / CYP2A13 [2]) | Selectivity Ki (2A6)/ Ki (2A13) (human CYP2A13 [3]) | Kd (human CYP2A13 [4]; Kd 2A13, spectral titration, ≥ = minimal Kd value) | Spectral shift type 2A13 (human CYP2A13 [4]; UV/Vis difference spectra) | selectivity ratio (CYP2A6 / CYP2A13 [5]) | Selectivity Kd (2A6)/ Kd (2A13) (human CYP2A13 [6]) |
| --- | --- | --- | --- | --- | --- | --- | --- | --- | --- | --- | --- |
| S=C=NCCc1ccccc1 [PEITC, phenethyl isothiocyanate] | 5% | – | – | – | – | – | – | – | – | – | – |
| Clc1ccccc1CN1CCSCC1 [Compound 18, 4-(2-chlorobenzyl)thiomorpholine] | – | 483 µM | mixed inhibition | 3.1 | 59 µM | 8 | 8.2 | 8.3 ± 4.1 µM | I | 18 | 18.6 |
